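1) Cells in 96-well plates. 2) Compound, 48 h, 5 concentrations. 3) Linear interpolation between surrounding doses. 4) Unreached endpoint = highest concentration. The concentration for 50% growth inhibition is given as GI50.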 Activity calls are given as the source filed them. Cut-off read from the data, not from the text of the source: active = GI50 up to about 1.1 µM and inactive = higher.
Tests used:
Assay in all cases: NCI-60 cell line screen, 48 h
HCT-15 = system: HCT-15
SR = system: SR
NCI/ADR-RES = system: NCI/ADR-RES
OVCAR-3 = system: OVCAR-3
OVCAR-4 = system: OVCAR-4
BT-549 = system: BT-549
COLO 205 = system: COLO 205
UO-31 = system: UO-31
U-251 = system: U-251
MCF7 = system: MCF7
PC-3 = system: PC-3
SK-MEL-2 = system: SK-MEL-2
KM12 = system: KM12
NCI-H460 = system: NCI-H460
SN12C = system: SN12C
786-0 = system: 786-0
NCI-H23 = system: NCI-H23
MDA-N = system: MDA-N
T47D = system: T47D
IGROV-1 = system: IGROV-1
MDA-MB-435 = system: MDA-MB-435
ACHN = system: ACHN
SF-539 = system: SF-539
UACC-62 = system: UACC-62
MDA-MB-231 = system: MDA-MB-231
HT-29 = system: HT-29
DU-145 = system: DU-145
A549 = system: A549
SNB-75 = system: SNB-75
NCI-H522 = system: NCI-H522
A498 = system: A498
SK-MEL-5 = system: SK-MEL-5
SF-268 = system: SF-268
M14 = system: M14
Hs-578T = system: Hs-578T
MOLT-4 = system: MOLT-4
UACC-257 = system: UACC-257
TK-10 = system: TK-10
SW-620 = system: SW-620
SK-MEL-28 = system: SK-MEL-28
SK-OV-3 = system: SK-OV-3
SF-295 = system: SF-295
HOP-92 = system: HOP-92
HOP-62 = system: HOP-62
LOX IMVI = system: LOX IMVI
HL-60 = system: HL-60
CAKI-1 = system: CAKI-1
K562 = system: K562
RXF 393 = system: RXF 393
NCI-H226 = system: NCI-H226
CCRF-CEM = system: CCRF-CEM
SNB-19 = system: SNB-19
HCC 2998 = system: HCC 2998
Malme-3M = system: Malme-3M
OVCAR-8 = system: OVCAR-8
OVCAR-5 = system: OVCAR-5
EKVX = system: EKVX
HCT-116 = system: HCT-116

Measured: GI50

O=C(O)COc1cccc2ccccc(=O)c12
active: SNB-75 0.0126 µM
> 100 µM: HCT-15
inactive: SR > 100 µM | NCI/ADR-RES > 100 µM | OVCAR-3 > 100 µM | OVCAR-4 > 100 µM | BT-549 > 100 µM | COLO 205 > 100 µM | UO-31 > 100 µM | U-251 > 100 µM | MCF7 > 100 µM | PC-3 > 100 µM | SK-MEL-2 > 100 µM | KM12 > 100 µM | NCI-H460 > 100 µM | SN12C > 100 µM | 786-0 > 100 µM | NCI-H23 > 100 µM | MDA-N > 100 µM | T47D > 100 µM | IGROV-1 > 100 µM | MDA-MB-435 > 100 µM | ACHN > 100 µM | SF-539 > 100 µM | UACC-62 > 100 µM | MDA-MB-231 > 100 µM | HT-29 > 100 µM | DU-145 > 100 µM | A549 > 100 µM | NCI-H522 > 100 µM | A498 > 100 µM | SK-MEL-5 > 100 µM | SF-268 > 100 µM | M14 > 100 µM | Hs-578T > 100 µM | MOLT-4 > 100 µM | UACC-257 > 100 µM | TK-10 > 100 µM | SW-620 > 100 µM | SK-MEL-28 > 100 µM | SK-OV-3 > 100 µM | SF-295 > 100 µM | HOP-92 > 100 µM | HOP-62 > 100 µM | LOX IMVI > 100 µM | HL-60 > 100 µM | CAKI-1 > 100 µM | K562 > 100 µM | RXF 393 > 100 µM | NCI-H226 > 100 µM | CCRF-CEM > 100 µM | SNB-19 > 100 µM | HCC 2998 > 100 µM | Malme-3M > 100 µM | OVCAR-8 > 100 µM | OVCAR-5 > 100 µM | EKVX > 100 µM | HCT-116 > 100 µM

O=CC(O)C(O)C(O)C(O)C(=O)NCCCCCCCCCCCCNC(=O)C(O)C(O)C(O)C(O)C=O (configuration not stated)
> 100 µM: HCT-15
inactive: SR > 100 µM | NCI/ADR-RES > 100 µM | OVCAR-3 > 100 µM | OVCAR-4 > 100 µM | BT-549 > 100 µM | COLO 205 > 100 µM | UO-31 > 100 µM | U-251 > 100 µM | MCF7 > 100 µM | PC-3 > 100 µM | SK-MEL-2 > 100 µM | KM12 > 100 µM | NCI-H460 > 100 µM | 786-0 > 100 µM | NCI-H23 > 100 µM | MDA-N > 100 µM | T47D > 100 µM | IGROV-1 > 100 µM | MDA-MB-435 > 100 µM | ACHN > 100 µM | SF-539 > 100 µM | UACC-62 > 100 µM | MDA-MB-231 > 100 µM | HT-29 > 100 µM | DU-145 > 100 µM | A549 > 100 µM | NCI-H522 > 100 µM | A498 > 100 µM | SK-MEL-5 > 100 µM | SF-268 > 100 µM | M14 > 100 µM | Hs-578T > 100 µM | MOLT-4 > 100 µM | UACC-257 > 100 µM | TK-10 > 100 µM | SW-620 > 100 µM | SK-MEL-28 > 100 µM | SK-OV-3 > 100 µM | SF-295 > 100 µM | HOP-92 > 100 µM | HOP-62 > 100 µM | LOX IMVI > 100 µM | HL-60 > 100 µM | RXF 393 > 100 µM | NCI-H226 > 100 µM | CCRF-CEM > 100 µM | SNB-19 > 100 µM | HCC 2998 > 100 µM | Malme-3M > 100 µM | OVCAR-8 > 100 µM | OVCAR-5 > 100 µM | EKVX > 100 µM | HCT-116 > 100 µM

From ChEMBL document CHEMBL1201862, “PubChem BioAssay data set” (2004)
